# According to patent publication US8585942B2, “Process and arrangement for producing particles utilizing subcritical fluids” (XSpray Microparticles AB, priority 2007, dated 2013):
# Experiments:
# [1] = Particle morphology and size by scanning electron microscope (TM-1000 Hitachi); assay type: physicochemical; settings: Example 6: solvent acetone, fluid water 10 ml/min, solution 0.2 ml/min, coaxial tube nozzle (FIG. 6)
# Experimental: It had two high pressure pumps (Jasco PU 980). One of the pump (624b) is used to feed the solution (0.2 ml/min Piroxicam in acetone (2% w/v)) (602) via a transport conduit (621) and the other pump (624a) is used to feed 10 ml/min water (fluid, anti-solvent) (603) via transport conduit (616) to a spray nozzle (601) placed in a particle collection chamber (605) containing at its outlet (625) a function for separating particles (filter) (615). The nozzle internal transport conduits were two stainless steel tubes (610,612) that were placed coaxially to each other with the inner one (612) connected to the pump (624b) for the solution and the outer one (610) to the pump (624a) for fluid. […] Particle sizes were determined to be less than 3 μm. […]
# A high pressure pump (Thar P50) (724a) is used to feed 50 ml/min water (fluid, anti-solvent) (703) via a transport conduit (716) and a high pressure pump (Jasco PU 980) (724b) is used to feed 1 ml/min solution of Piroxicam in acetone (2% w/v) (702) via transport conduit (721) to a nozzle (701) placed in a particle collecting chamber (705) containing at its outlet (725) a particle separation function in the form of a filter cup (715). […] The morphology and size of the crystals in the filter cup is determined using TM1000 Hitachi scanning electron microscope. Particle sizes were determined to be between 0.5 μm to 2 μm. […]
# [2] = Particle size characterisation by laser diffraction (Mastersizer 2000); assay type: physicochemical; settings: budesonide particles; for Particle size distribution D(0.1′): diameter for the smallest particles up to 10% of the material analyzed; for Particle size distribution d(0.5)′ (mean particle size): diameter for the smallest particles up to 50% of the material analyzed; for Particle size distribution d(0.9)′: diameter for the smallest particles up to 90% of the material analyzed
# Source text: The terms “particle size”, “particle size diameter” and “particle size distribution” in this specification refer to values obtained as given in the Experimental Part (laser diffraction by the use of Mastersizer 2000 from Malvern Instruments Ltd, Worcestershire, United Kindom). For the meaning of “mean particle size” or “mean particle diameter” see also the Experimental Part.
# A 2% w/v budesonide solution in acetone was introduced into the nozzle of FIG. 2 placed in the arrangement of FIG. 1 (except for the recycling capability) using a separate high-performance liquid chromatography pump 1.4 ml/min, together with the 125 g/min scCO2 (about 150 ml/min) which was modified with the make-up agent 4.2 ml/min acetone. The pressure in the system was 100 atm. and temperature was at 60° C. All of the streams contact within the nozzle and the budesonide powder formed and collected in the particle collecting chamber. The scCO2 and acetone was drained via the backpressure regulator outlet. Then, a further washing process was performed to eliminate the solvent mixed in the scCO2. After the washing process, the CO2 was slowly drained off from the chamber. Once the CO2 had been completely removed, the particles on the filter and on the wall were collected for analysis. The particles were characterized by laser diffraction in Mastersizer 2000 (Malvern Instruments Ltd, Worcestershire, United Kingdom).
Structure (SMILES),Particle sizes [1],Spec. Surface Area [2] [m^2/g],Particle size distribution D(0.1′) [2],Particle size distribution d(0.5)′ (mean particle size) [2],Particle size distribution d(0.9)′ [2]
CN1C(C(=O)Nc2ccccn2)=C(O)c2ccccc2S1(=O)=O [Piroxicam],less than 3 μm,,,,
"CCCC1O[C@@H]2C[C@H]3[C@@H]4CCC5=CC(=O)C=C[C@]5(C)[C@H]4[C@@H](O)C[C@]3(C)[C@]2(C(=O)CO)O1 (stereo partly drawn) [Example 4, budesonide]",,0.6,≦6.3 μm,≦14.2 μm,≦26.7 μm
"CCCC1O[C@@H]2C[C@H]3[C@@H]4CCC5=CC(=O)C=C[C@]5(C)[C@H]4[C@@H](O)C[C@]3(C)[C@]2(C(=O)CO)O1 (stereo partly drawn) [Example 1, budesonide]",,1.7,≦1.9 μm,≦4.0 μm,≦7.9 μm
"CCCC1O[C@@H]2C[C@H]3[C@@H]4CCC5=CC(=O)C=C[C@]5(C)[C@H]4[C@@H](O)C[C@]3(C)[C@]2(C(=O)CO)O1 (stereo partly drawn) [Example 2, budesonide]",,1.7,≦1.1 μm,≦1.9 μm,≦3.4 μm
"CCCC1O[C@@H]2C[C@H]3[C@@H]4CCC5=CC(=O)C=C[C@]5(C)[C@H]4[C@@H](O)C[C@]3(C)[C@]2(C(=O)CO)O1 (stereo partly drawn) [Example 3, budesonide]",,1.6,≦2.2 μm,≦4.2 μm,≦8.7 μm
"CCCC1O[C@@H]2C[C@H]3[C@@H]4CCC5=CC(=O)C=C[C@]5(C)[C@H]4[C@@H](O)C[C@]3(C)[C@]2(C(=O)CO)O1 (stereo partly drawn) [Example 5, budesonide]",,1.7,≦2.0 μm,≦4.1 μm,≦7.9 μm
